In ChEMBL document CHEMBL1255438, “Comparative activities of TR-700 (torezolid) against staphylococcal blood isolates collected in Spain” (2010):
In brackets after ≈: the same amount, converted by molar mass.

Legend:
Type in all cases: functional
[1] = test system: Staphylococcus aureus; experiment: Antimicrobial activity against linezolid-resistant Staphylococcus aureus by CLSI method
[2] = test system: Staphylococcus; experiment: Antimicrobial activity against linezolid-resistant coagulase-negative Staphylococcus assessed as percent susceptible strain by CLSI method
[3] = test system: Staphylococcus aureus; experiment: Antimicrobial activity against oxacillin-susceptible Staphylococcus aureus assessed as percent susceptible strain by CLSI method
[4] = test system: Staphylococcus; experiment: Antimicrobial activity against linezolid-resistant coagulase-negative Staphylococcus by CLSI method
[5] = test system: Staphylococcus aureus; experiment: Antimicrobial activity against linezolid-resistant Staphylococcus aureus assessed as percent susceptible strain by CLSI method
[6] = test system: Staphylococcus aureus; experiment: Antimicrobial activity against oxacillin-susceptible Staphylococcus aureus by CLSI method
[7] = Antimicrobial activity against oxacillin-susceptible coagulase-negative Staphylococcus aureus assessed as percent susceptible strain by CLSI method
[8] = test system: Staphylococcus; experiment: Antimicrobial activity against linezolid-susceptible coagulase-negative Staphylococcus by CLSI method
[9] = test system: Staphylococcus; experiment: Antimicrobial activity against linezolid-susceptible coagulase-negative Staphylococcus assessed as percent susceptible strain by CLSI method
[10] = test system: Staphylococcus aureus; experiment: Antimicrobial activity against linezolid-susceptible Staphylococcus aureus assessed as percent susceptible strain by CLSI method
[11] = test system: Staphylococcus; experiment: Antimicrobial activity against oxacillin-resistant coagulase-negative Staphylococcus aureus by CLSI method
[12] = test system: Staphylococcus aureus; experiment: Antimicrobial activity against oxacillin-resistant Staphylococcus aureus by CLSI method
[13] = test system: Staphylococcus aureus; experiment: Antimicrobial activity against linezolid-susceptible Staphylococcus aureus by CLSI method
[14] = test system: Staphylococcus aureus; experiment: Antimicrobial activity against oxacillin-resistant Staphylococcus aureus assessed as percent susceptible strain by CLSI method
[15] = test system: Staphylococcus; experiment: Antimicrobial activity against Linezolid and methicillin-resistant coagulase-negative Staphylococcus by CLSI method
[16] = test system: Staphylococcus; experiment: Antimicrobial activity against oxacillin-susceptible coagulase-negative Staphylococcus aureus by CLSI method
[17] = test system: Staphylococcus aureus; experiment: Antimicrobial activity against oxacillin-susceptible Staphylococcus aureus assessed as inhibition of microbial growth at 1 ug/ml by CLSI method
[18] = test system: Staphylococcus; experiment: Antimicrobial activity against linezolid-susceptible coagulase-negative Staphylococcus assessed as inhibition of microbial growth at 0.5 ug/ml by CLSI method
[19] = test system: Staphylococcus aureus; experiment: Antimicrobial activity against oxacillin-resistant Staphylococcus aureus assessed as inhibition of microbial growth at 2 ug/ml by CLSI method
[20] = test system: Staphylococcus aureus; experiment: Antimicrobial activity against oxacillin-susceptible coagulase-negative Staphylococcus aureus assessed as inhibition of microbial growth at 2 ug/ml by CLSI method
[21] = test system: Staphylococcus; experiment: Antimicrobial activity against linezolid-susceptible coagulase-negative Staphylococcus assessed as inhibition of microbial growth at 2 ug/ml by CLSI method
[22] = test system: Staphylococcus aureus; experiment: Antimicrobial activity against oxacillin-resistant Staphylococcus aureus assessed as inhibition of microbial growth at 1 ug/ml by CLSI method
[23] = test system: Staphylococcus aureus; experiment: Antimicrobial activity against linezolid-susceptible Staphylococcus aureus assessed as inhibition of microbial growth at 1 ug/ml by CLSI method
[24] = test system: Staphylococcus aureus; experiment: Antimicrobial activity against linezolid-susceptible Staphylococcus aureus assessed as inhibition of microbial growth at 4 ug/ml by CLSI method
[25] = test system: Staphylococcus; experiment: Antimicrobial activity against linezolid-resistant coagulase-negative Staphylococcus assessed as inhibition of microbial growth at 256 ug/ml by CLSI method
[26] = test system: Staphylococcus; experiment: Antimicrobial activity against linezolid-resistant coagulase-negative Staphylococcus assessed as inhibition of microbial growth at 32 ug/ml by CLSI method
[27] = test system: Staphylococcus aureus; experiment: Antimicrobial activity against linezolid-susceptible Staphylococcus aureus assessed as inhibition of microbial growth at 0.5 ug/ml by CLSI method
[28] = test system: Staphylococcus aureus; experiment: Antimicrobial activity against methicillin-resistant Staphylococcus aureus by CLSI method
[29] = test system: Staphylococcus; experiment: Antimicrobial activity against linezolid-susceptible coagulase-negative Staphylococcus assessed as inhibition of microbial growth at =< 0.25 ug/ml by CLSI method
[30] = test system: Staphylococcus; experiment: Antimicrobial activity against linezolid-susceptible coagulase-negative Staphylococcus assessed as inhibition of microbial growth at 4 ug/ml by CLSI method
[31] = test system: Staphylococcus; experiment: Antimicrobial activity against linezolid-susceptible coagulase-negative Staphylococcus assessed as inhibition of microbial growth at 1 ug/ml by CLSI method
[32] = test system: Staphylococcus aureus; experiment: Antimicrobial activity against oxacillin-susceptible coagulase-negative Staphylococcus aureus assessed as inhibition of microbial growth at =< 0.25 ug/ml by CLSI method
[33] = test system: Staphylococcus aureus; experiment: Antimicrobial activity against oxacillin-susceptible coagulase-negative Staphylococcus aureus assessed as inhibition of microbial growth at 1 ug/ml by CLSI method
[34] = test system: Staphylococcus aureus; experiment: Antimicrobial activity against oxacillin-susceptible coagulase-negative Staphylococcus aureus assessed as inhibition of microbial growth at 0.5 ug/ml by CLSI method
[35] = test system: Staphylococcus aureus; experiment: Antimicrobial activity against oxacillin-susceptible Staphylococcus aureus assessed as inhibition of microbial growth at =< 0.25 ug/ml by CLSI method
[36] = test system: Staphylococcus aureus; experiment: Antimicrobial activity against oxacillin-resistant Staphylococcus aureus assessed as inhibition of microbial growth at 4 ug/ml by CLSI method
[37] = test system: Staphylococcus aureus; experiment: Antimicrobial activity against oxacillin-resistant Staphylococcus aureus assessed as inhibition of microbial growth at =< 0.25 ug/ml by CLSI method
[38] = test system: Staphylococcus; experiment: Antimicrobial activity against linezolid-resistant coagulase-negative Staphylococcus assessed as inhibition of microbial growth at 64 ug/ml by CLSI method
[39] = test system: Staphylococcus; experiment: Antimicrobial activity against linezolid-resistant coagulase-negative Staphylococcus assessed as inhibition of microbial growth at 16 ug/ml by CLSI method
[40] = test system: Staphylococcus aureus; experiment: Antimicrobial activity against oxacillin-resistant coagulase-negative Staphylococcus aureus assessed as inhibition of microbial growth at 1 ug/ml by CLSI method
[41] = test system: Staphylococcus aureus; experiment: Antimicrobial activity against oxacillin-susceptible Staphylococcus aureus assessed as inhibition of microbial growth at 4 ug/ml by CLSI method
[42] = test system: Staphylococcus aureus; experiment: Antimicrobial activity against linezolid-resistant Staphylococcus aureus assessed as inhibition of microbial growth at 16 ug/ml by CLSI method
[43] = test system: Staphylococcus aureus; experiment: Antimicrobial activity against oxacillin-resistant coagulase-negative Staphylococcus aureus assessed as inhibition of microbial growth at 2 ug/ml by CLSI method
[44] = test system: Staphylococcus aureus; experiment: Antimicrobial activity against oxacillin-susceptible Staphylococcus aureus assessed as inhibition of microbial growth at 2 ug/ml by CLSI method
[45] = test system: Staphylococcus aureus; experiment: Antimicrobial activity against linezolid-susceptible Staphylococcus aureus assessed as inhibition of microbial growth at =< 0.25 ug/ml by CLSI method
[46] = test system: Staphylococcus; experiment: Antimicrobial activity against linezolid-resistant coagulase-negative Staphylococcus assessed as inhibition of microbial growth at 128 ug/ml by CLSI method
[47] = test system: Staphylococcus aureus; experiment: Antimicrobial activity against oxacillin-resistant Staphylococcus aureus assessed as inhibition of microbial growth at 0.5 ug/ml by CLSI method
[48] = test system: Staphylococcus aureus; experiment: Antimicrobial activity against linezolid-susceptible Staphylococcus aureus assessed as inhibition of microbial growth at 2 ug/ml by CLSI method
[49] = test system: Staphylococcus aureus; experiment: Antimicrobial activity against oxacillin-susceptible Staphylococcus aureus assessed as inhibition of microbial growth at 0.5 ug/ml by CLSI method
[50] = test system: Staphylococcus aureus; experiment: Antimicrobial activity against oxacillin-resistant coagulase-negative Staphylococcus aureus assessed as inhibition of microbial growth at 4 ug/ml by CLSI method

## CN[C@H](CC(C)C)C(=O)N[C@H]1C(=O)N[C@@H](CC(N)=O)C(=O)N[C@H]2C(=O)N[C@H]3C(=O)N[C@H](C(=O)N[C@H](C(=O)O)c4cc(O)cc(O)c4-c4cc3ccc4O)[C@H](O)c3ccc(c(Cl)c3)Oc3cc2cc(c3O[C@@H]2O[C@H](CO)[C@@H](O)[C@H](O)[C@H]2O[C@H]2C[C@](C)(N)[C@H](O)[C@H](C)O2)Oc2ccc(cc2Cl)[C@H]1O [VANCOMYCIN]
[1]
  MIC50: 2 µg/mL (≈ 1.38 µM)
[2]
  Activity: 100%
[3]
  Activity: 100%
[4]
  MIC50: 2 µg/mL (≈ 1.38 µM)
[5]
  Activity: 100%
[6]
  MIC50: 1 µg/mL (≈ 0.69 µM)
  MIC90: 1 µg/mL (≈ 0.69 µM)
[7]
  Activity: 100%
[8]
  MIC50: 2 µg/mL (≈ 1.38 µM)
  MIC90: 2 µg/mL (≈ 1.38 µM)
[9]
  Activity: 100%
[10]
  Activity: 99.6%
[11]
  MIC50: 2 µg/mL (≈ 1.38 µM)
  MIC90: 2 µg/mL (≈ 1.38 µM)
[12]
  MIC50: 1 µg/mL (≈ 0.69 µM)
  MIC90: 2 µg/mL (≈ 1.38 µM)
[13]
  MIC50: 1 µg/mL (≈ 0.69 µM)
  MIC90: 1 µg/mL (≈ 0.69 µM)
[14]
  Activity: 99.2%
[15]
  MIC: 2 µg/mL (≈ 1.38 µM)
[16]
  MIC50: 2 µg/mL (≈ 1.38 µM)
  MIC90: 2 µg/mL (≈ 1.38 µM)

## CC(=O)NC[C@H]1CN(c2ccc(N3CCOCC3)c(F)c2)C(=O)O1 [LINEZOLID]
[17]
  inhibition at 1 µg/mL: 51%
[18]
  inhibition at 0.5 µg/mL: 8%
[19]
  inhibition at 2 µg/mL: 84.6%
[20]
  inhibition at 2 µg/mL: 100%
[1]
  MIC50: 16 µg/mL (≈ 47.4 µM)
[21]
  inhibition at 2 µg/mL: 99%
[22]
  inhibition at 1 µg/mL: 40.5%
[2]
  Activity: 0%
[23]
  inhibition at 1 µg/mL: 45.2%
[3]
  Activity: 100%
[4]
  MIC50: 16 µg/mL (≈ 47.4 µM)
[24]
  inhibition at 4 µg/mL: 100%
[25]
  inhibition at 256 µg/mL: 100%
[26]
  inhibition at 32 µg/mL: 60%
[27]
  inhibition at 0.5 µg/mL: 2.4%
[28]
  MIC: 16 µg/mL (≈ 47.4 µM)
[29]
  inhibition (INH): 3%
[30]
  inhibition at 4 µg/mL: 100%
[5]
  Activity: 0%
[6]
  MIC50: 1 µg/mL (≈ 2.96 µM)
  MIC90: 2 µg/mL (≈ 5.93 µM)
[31]
  inhibition at 1 µg/mL: 80.4%
[32]
  inhibition (INH): 4.9%
[7]
  Activity: 100%
[33]
  inhibition at 1 µg/mL: 75.6%
[34]
  inhibition at 0.5 µg/mL: 9.8%
[35]
  inhibition (INH): 0.5%
[36]
  inhibition at 4 µg/mL: 100%
[37]
  inhibition (INH): 2%
[38]
  inhibition at 64 µg/mL: 80%
[8]
  MIC50: 1 µg/mL (≈ 2.96 µM)
  MIC90: 2 µg/mL (≈ 5.93 µM)
[39]
  inhibition at 16 µg/mL: 60%
[9]
  Activity: 100%
[40]
  inhibition at 1 µg/mL: 81.6%
[10]
  Activity: 100%
[41]
  inhibition at 4 µg/mL: 100%
[42]
  inhibition at 16 µg/mL: 100%
[11]
  MIC50: 1 µg/mL (≈ 2.96 µM)
  MIC90: 2 µg/mL (≈ 5.93 µM)
[12]
  MIC50: 2 µg/mL (≈ 5.93 µM)
  MIC90: 4 µg/mL (≈ 11.9 µM)
[13]
  MIC50: 2 µg/mL (≈ 5.93 µM)
  MIC90: 2 µg/mL (≈ 5.93 µM)
[43]
  inhibition at 2 µg/mL: 98.7%
[44]
  inhibition at 2 µg/mL: 99%
[45]
  inhibition (INH): 1.3%
[46]
  inhibition at 128 µg/mL: 80%
[47]
  inhibition at 0.5 µg/mL: 4%
[16]
  MIC50: 1 µg/mL (≈ 2.96 µM)
  MIC90: 2 µg/mL (≈ 5.93 µM)
[48]
  inhibition at 2 µg/mL: 91.1%
[49]
  inhibition at 0.5 µg/mL: 0.5%
[50]
  inhibition at 4 µg/mL: 100%
